# Test results taken from article PMC10120462, “Styrylquinazoline derivatives as ABL inhibitors selective for different DFG orientations” (Journal of Enzyme Inhibition and Medicinal Chemistry, 2023).
# Counter-ions that a name gives are not always drawn.
# Tests used:
# ABL = target: T1, ABL (Homo sapiens, UniProt P00519); assay: Tyrosine kinase assay (Kinase Selectivity System TK-2, ADP-Glo); assay type: biochemical; conditions: 1 h incubation, mean ± SD of four experiments
# T1 construct: purchased Promega
# Lck = target: T2, Lck (Homo sapiens, UniProt P06239); assay: as above; assay type: biochemical; conditions: 1 h incubation, mean ± SD of four experiments
# T2 construct: purchased Promega
# Src = target: T3, Src (Homo sapiens, UniProt P12931); assay: as above; assay type: biochemical; conditions: 1 h incubation, mean ± SD of four experiments
# T3 construct: purchased Promega
# BTK = target: T4, BTK (Homo sapiens, UniProt Q06187); assay: as above; assay type: biochemical; conditions: 1 h incubation, mean ± SD of four experiments
# T4 construct: purchased Promega
# BRK = target: T5, BRK (Homo sapiens, UniProt Q13882); assay: as above; assay type: biochemical; conditions: 1 h incubation, mean ± SD of four experiments
# T5 construct: purchased Promega
# NHDF = assay: Cytotoxicity studies (MTS), normal fibroblasts; assay type: cell-based; conditions: 72 h, normal human fibroblasts, read-out: Antiproliferative activity IC50 NHDF
# Excerpt: (§1) In contrast, the other cell lines studied represent common cancers found in the human population. Nevertheless, these cell lines are characterised by a different landscape of kinase expression, as reported in[36]. In chronic leukaemia cells, an aberration of the Philadelphia chromosome is common in which a fragment of chromosome 9 is displaced to chromosome 22, leading to the formation of the oncogenic protein BCR-ABL. The altered structure of the protein leads to abnormal activity that promotes excessive growth and differentiation of cells even in the absence of growth factors, as well as inhibition of apoptosis and formation of metastases. Moreover, the status of the TP53 gene in leukaemia is not insignificant. Mutations of the TP53 gene occur in more than 50% of all cancers, leading to increased metastasis and an overall poor prognosis[38]^,[39]. The p53 protein encoded by this gene plays a pivotal role in controlling cell division or cell fate when damage is detected. […] Therefore, interaction between the signalling network of the BCR-ABL pathway and p53 often results in an impairment of p53 function and survival[43]^,[44]. […] Selectivity studies were performed on normal human fibroblast – NHDF cell line.
# (§2) M. Rusin from the Maria Sklodowska-Curie Memorial Cancer Centre and Institute of Oncology in Gliwice, Poland. […] G. Kramer-Marek from the Institute of Cancer Research in London, United Kingdom. The human suspension chronic myeloids leukaemia cell line K562 and the pancreatic ductal adenocarcinoma cell line PANC-1 were purchased from Merck. The normal human dermal fibroblasts cell line NHDF were obtained from PromoCell. All adherent cancer cell lines were cultured in Dulbecco’s Modified Eagle’s medium (DMEM) supplemented with 10% heat-inactivated foetal bovine serum – FBS (all from Merck). […] Each complete medium contained a mixture of two antibiotics - penicillin and streptomycin (1% v/v; Gibco). Cell lines were cultured at 37 °C with 5% CO2 humidified atmosphere.
# (§3) The assay was carried out after 72 h of incubation with different concentrations of the tested compounds. Then DMEM without phenol red was added to each well with CellTiter 96®AQueous One Solution-MTS (Promega) solution and incubated for 1 h or 3 h (PANC-1) at 37 °C. The optical densities of the samples were measured at 490 nm using a multi-plate reader (Synergy 4, BioTek). […] Each compound was tested in triplicate in a single experiment and each experiment was performed three or four times.
# CSK = target: T6, CSK (Homo sapiens, UniProt P41240); assay: Tyrosine kinase assay (Kinase Selectivity System TK-2, ADP-Glo); assay type: biochemical; conditions: 1 h incubation, mean ± SD of four experiments
# T6 construct: purchased Promega
# Lyn B = target: T7, Lyn B (Homo sapiens, UniProt P07948); assay: as above; assay type: biochemical; conditions: 1 h incubation, mean ± SD of four experiments
# T7 construct: purchased Promega
# Fyn A = target: T8, Fyn A (Homo sapiens, UniProt P06241); assay: as above; assay type: biochemical; conditions: 1 h incubation, mean ± SD of four experiments
# T8 construct: purchased Promega
# Excerpt: All newly synthesised derivatives were screened for their inhibitory potential towards eight non-receptor tyrosine kinases, such as ABL, BTK, BRK and Src family kinases, such as CSK, Lyn, Lck, Fyn and Src. […] To facilitate the analysis of the structure and enzymatic activity, all tested compounds were divided into four subgroups based on the main structural scaffolds (the general structure of each group is shown in the second column of Table 1). Series A, B, and C were subdivided according to the S^4-aryl substituent, while D represents the different styryl groups at the C^2-quinazoline position.
# Herein, we used a kinase assay that contained fully expressed kinases with their regulatory domains, which are responsible for autoinhibition. The proteins are present in their unphosphorylated form and the procedure required supplementation with ATP. Importantly, autophosphorylation of ABL is dependent on […] concentration of the protein. Thus, our experimental conditions reflect the cellular process to be simulated. The luminescence signal detected after one hour of incubation with a peptide substrate was a measure of inhibition. Under these conditions, the question of whether the inhibitors tested bind to the ortho or allosteric site of the protein could be answered. […] To test this hypothesis, further molecular docking experiments were performed to more precisely determine the binding of the tested compounds to the ABL kinase.
# To determine the inhibition of non-receptor tyrosine kinases, assays were performed using the kinase selectivity system TK-2 and the ADP-Glo Kinase Assay (both from Promega). The protocol was previously developed by our group and described in reports[12]^,[36]. Experiments were performed at least four times. Data are expressed as percentage of tyrosine kinase inhibitory activity after treatment with the derivatives tested.
# PANC-1 = assay: Cytotoxicity studies (MTS), antiproliferative activity; assay type: cell-based, human; conditions: Homo sapiens, PANC-1; 72 h, MTS
# Excerpt: as §1, §2, §3
# U-251 = assay: as above; assay type: cell-based, human; conditions: Homo sapiens, U-251; 72 h, MTS
# Excerpt: as §1, §2, §3
# K562 = assay: as above; assay type: cell-based, human; conditions: Homo sapiens, K562; 72 h, MTS
# Excerpt: as §1, §2, §3
# HCT 116 p53−/− = assay: as above; assay type: cell-based, human; conditions: Homo sapiens, HCT-116; 72 h, MTS
# Excerpt: as §1, §2, §3
# A549 = assay: as above; assay type: cell-based, human; conditions: Homo sapiens, A549; 72 h, MTS
# Excerpt: as §1, §2, §3
# HCT 116 p53+/+ = assay: as above; assay type: cell-based, human; conditions: Homo sapiens, HCT-116; 72 h, MTS
# Excerpt: as §1, §2, §3
# MCF-7 = assay: as above; assay type: cell-based, human; conditions: Homo sapiens, MCF7; 72 h, MTS
# Excerpt: as §1, §2, §3
# T7 sequence (P07948 1-491 isoform P07948-2): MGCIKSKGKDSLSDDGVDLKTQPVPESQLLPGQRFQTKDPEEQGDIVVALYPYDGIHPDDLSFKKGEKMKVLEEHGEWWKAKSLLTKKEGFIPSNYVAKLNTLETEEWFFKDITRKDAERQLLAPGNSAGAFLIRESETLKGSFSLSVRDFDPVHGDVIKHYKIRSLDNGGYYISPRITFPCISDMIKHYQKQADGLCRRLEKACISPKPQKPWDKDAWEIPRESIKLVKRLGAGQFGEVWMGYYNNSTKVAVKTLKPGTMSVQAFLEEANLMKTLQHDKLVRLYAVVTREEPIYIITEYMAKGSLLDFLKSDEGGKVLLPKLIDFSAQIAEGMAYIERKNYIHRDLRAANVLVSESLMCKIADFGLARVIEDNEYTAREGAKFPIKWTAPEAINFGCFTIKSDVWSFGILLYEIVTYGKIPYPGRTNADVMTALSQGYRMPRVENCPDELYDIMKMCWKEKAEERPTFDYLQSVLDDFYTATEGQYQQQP
# T5 sequence (Q13882 whole entry): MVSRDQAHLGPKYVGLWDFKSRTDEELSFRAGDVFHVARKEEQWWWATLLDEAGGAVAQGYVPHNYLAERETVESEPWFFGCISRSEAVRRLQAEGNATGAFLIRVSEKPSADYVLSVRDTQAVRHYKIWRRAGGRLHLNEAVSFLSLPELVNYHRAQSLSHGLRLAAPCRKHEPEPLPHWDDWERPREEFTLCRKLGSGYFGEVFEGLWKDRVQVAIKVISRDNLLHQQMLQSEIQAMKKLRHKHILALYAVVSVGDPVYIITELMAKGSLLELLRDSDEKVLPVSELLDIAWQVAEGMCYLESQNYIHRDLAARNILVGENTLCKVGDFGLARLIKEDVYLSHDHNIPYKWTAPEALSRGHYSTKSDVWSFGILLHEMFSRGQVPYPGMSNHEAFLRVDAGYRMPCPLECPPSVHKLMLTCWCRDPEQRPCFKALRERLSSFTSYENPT
# T8 sequence (P06241 whole entry): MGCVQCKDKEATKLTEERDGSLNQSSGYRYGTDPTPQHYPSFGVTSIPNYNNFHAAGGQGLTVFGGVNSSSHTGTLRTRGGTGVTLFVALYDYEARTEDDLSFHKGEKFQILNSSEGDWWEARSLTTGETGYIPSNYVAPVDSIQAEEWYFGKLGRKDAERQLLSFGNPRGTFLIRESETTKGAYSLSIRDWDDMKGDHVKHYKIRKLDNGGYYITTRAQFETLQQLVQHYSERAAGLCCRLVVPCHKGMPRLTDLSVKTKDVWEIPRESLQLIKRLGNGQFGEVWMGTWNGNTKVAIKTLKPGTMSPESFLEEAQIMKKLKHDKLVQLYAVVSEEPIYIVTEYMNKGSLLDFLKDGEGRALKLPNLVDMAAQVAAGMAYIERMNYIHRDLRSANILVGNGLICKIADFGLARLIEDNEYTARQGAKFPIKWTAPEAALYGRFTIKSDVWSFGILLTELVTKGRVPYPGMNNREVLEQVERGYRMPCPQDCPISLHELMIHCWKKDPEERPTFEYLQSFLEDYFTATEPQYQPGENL
# T3 sequence (P12931 whole entry): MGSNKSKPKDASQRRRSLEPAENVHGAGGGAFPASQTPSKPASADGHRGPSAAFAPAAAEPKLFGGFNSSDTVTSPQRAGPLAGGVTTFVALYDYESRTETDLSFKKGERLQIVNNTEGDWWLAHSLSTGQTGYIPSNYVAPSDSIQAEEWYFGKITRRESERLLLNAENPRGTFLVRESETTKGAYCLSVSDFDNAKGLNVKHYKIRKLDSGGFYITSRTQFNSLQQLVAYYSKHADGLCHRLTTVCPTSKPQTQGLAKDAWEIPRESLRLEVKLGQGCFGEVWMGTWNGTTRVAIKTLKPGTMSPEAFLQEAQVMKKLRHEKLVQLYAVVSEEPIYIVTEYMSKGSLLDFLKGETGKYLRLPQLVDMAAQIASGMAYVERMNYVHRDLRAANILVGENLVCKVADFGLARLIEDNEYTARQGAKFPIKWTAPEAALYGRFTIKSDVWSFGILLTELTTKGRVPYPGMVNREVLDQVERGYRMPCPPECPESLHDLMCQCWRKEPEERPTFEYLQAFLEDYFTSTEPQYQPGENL
# T1 sequence (P00519 whole entry): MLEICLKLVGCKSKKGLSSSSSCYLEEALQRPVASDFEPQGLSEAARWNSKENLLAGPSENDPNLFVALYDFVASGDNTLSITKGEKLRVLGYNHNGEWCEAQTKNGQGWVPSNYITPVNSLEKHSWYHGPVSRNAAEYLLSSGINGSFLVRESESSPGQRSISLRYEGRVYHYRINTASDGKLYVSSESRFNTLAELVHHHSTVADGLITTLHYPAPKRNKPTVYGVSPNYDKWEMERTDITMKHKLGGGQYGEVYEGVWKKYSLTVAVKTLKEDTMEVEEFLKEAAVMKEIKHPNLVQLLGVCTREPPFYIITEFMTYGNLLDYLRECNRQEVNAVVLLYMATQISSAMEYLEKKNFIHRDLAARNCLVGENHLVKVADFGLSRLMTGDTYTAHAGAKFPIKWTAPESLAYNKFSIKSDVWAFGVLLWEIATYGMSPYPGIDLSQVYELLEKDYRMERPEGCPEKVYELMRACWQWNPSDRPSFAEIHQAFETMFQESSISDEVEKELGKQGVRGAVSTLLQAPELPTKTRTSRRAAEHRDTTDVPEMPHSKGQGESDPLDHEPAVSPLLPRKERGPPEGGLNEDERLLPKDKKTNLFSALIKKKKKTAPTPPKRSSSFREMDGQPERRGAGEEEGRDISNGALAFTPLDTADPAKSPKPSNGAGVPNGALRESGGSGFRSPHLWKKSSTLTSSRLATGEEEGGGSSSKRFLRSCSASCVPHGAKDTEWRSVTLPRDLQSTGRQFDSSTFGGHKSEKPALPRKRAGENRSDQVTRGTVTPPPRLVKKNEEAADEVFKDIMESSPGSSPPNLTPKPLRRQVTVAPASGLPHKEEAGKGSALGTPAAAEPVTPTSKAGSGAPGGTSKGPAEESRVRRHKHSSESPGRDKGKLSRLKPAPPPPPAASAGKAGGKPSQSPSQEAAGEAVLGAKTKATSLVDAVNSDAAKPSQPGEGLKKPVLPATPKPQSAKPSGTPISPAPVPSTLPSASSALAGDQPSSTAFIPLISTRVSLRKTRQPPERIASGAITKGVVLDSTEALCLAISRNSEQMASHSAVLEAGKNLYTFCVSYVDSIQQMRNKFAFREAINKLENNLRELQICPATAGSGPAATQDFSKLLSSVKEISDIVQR
# T2 sequence (P06239 whole entry): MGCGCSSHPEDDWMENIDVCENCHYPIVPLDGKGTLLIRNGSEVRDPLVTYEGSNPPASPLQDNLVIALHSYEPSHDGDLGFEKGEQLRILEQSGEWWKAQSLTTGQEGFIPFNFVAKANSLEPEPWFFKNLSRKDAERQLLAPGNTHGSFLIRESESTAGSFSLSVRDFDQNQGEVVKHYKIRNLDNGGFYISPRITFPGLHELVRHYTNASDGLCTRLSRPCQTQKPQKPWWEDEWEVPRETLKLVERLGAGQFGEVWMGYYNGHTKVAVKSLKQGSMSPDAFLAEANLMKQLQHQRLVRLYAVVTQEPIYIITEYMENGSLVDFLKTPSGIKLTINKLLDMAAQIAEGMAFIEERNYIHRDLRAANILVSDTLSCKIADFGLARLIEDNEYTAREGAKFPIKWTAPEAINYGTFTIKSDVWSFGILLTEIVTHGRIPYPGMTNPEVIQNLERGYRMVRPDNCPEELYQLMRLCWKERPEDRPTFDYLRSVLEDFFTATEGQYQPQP
# T4 sequence (Q06187 whole entry): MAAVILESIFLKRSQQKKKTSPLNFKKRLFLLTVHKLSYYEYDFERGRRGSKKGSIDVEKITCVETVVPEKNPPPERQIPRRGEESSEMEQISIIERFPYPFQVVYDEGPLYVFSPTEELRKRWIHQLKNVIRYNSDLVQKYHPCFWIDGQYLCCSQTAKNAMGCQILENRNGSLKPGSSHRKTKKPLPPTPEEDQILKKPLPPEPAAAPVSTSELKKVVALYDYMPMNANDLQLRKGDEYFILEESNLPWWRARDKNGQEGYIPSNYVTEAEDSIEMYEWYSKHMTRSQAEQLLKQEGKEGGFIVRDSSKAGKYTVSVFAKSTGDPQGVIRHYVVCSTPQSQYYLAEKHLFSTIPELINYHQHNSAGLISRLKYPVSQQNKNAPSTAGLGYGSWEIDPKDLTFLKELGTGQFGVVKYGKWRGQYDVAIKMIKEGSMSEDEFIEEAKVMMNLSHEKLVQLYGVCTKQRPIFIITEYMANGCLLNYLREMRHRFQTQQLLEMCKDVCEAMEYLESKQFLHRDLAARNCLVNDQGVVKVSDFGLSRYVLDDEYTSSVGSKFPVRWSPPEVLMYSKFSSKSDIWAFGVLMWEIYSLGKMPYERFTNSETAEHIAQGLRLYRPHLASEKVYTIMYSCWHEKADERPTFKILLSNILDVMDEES
SMILES,Inhibition of tyrosine kinase activity [%] ABL (ABL; 0.5 μM),inhibition at 0.5 µM (ABL) [%],inhibition at 0.5 µM (Lck) [%],inhibition at 0.5 µM (Src) [%],inhibition at 0.5 µM (BTK) [%],inhibition at 0.5 µM (BRK) [%],inhibition at 0.5 µM (CSK) [%],inhibition at 0.5 µM (Lyn B) [%],inhibition at 0.5 µM (Fyn A) [%],Inhibition of tyrosine kinase activity [%] Lck (Lck; 0.5 μM) [%],Inhibition of tyrosine kinase activity [%] Src (Src; 0.5 μM) [%],Inhibition of tyrosine kinase activity [%] Fyn A (Fyn A; 0.5 μM) [%],IC50 (NHDF) [µM],IC50 (PANC-1) [µM],IC50 (U-251) [µM],IC50 (K562) [µM],IC50 (HCT 116 p53−/−) [µM],IC50 (A549) [µM],IC50 (HCT 116 p53+/+) [µM],IC50 (MCF-7) [µM]
"COc1ccccc1/C=C/c1nc(Sc2cc3c(cc2Br)OCO3)c2ccccc2n1 [IS11, 5-{2-[(E)-2–(2-methoxyphenyl)ethenyl]quinazolin-4-ylthio}-6-bromo-2H-1,3-benzodioxole]",inactive,18.4 ± 2.37,0,40.9 ± 1.77,2.87 ± 0.67,0,50.7 ± 5.6,0.86 ± 0.23,19.1 ± 3.57,–,–,–,21.7 ± 1.53,> 10,> 5,> 2.5,> 15,> 5,> 15,–
"COc1ccccc1/C=C/c1nc(Sc2ccccc2Cl)c2ccc(Cl)cc2n1 [IS12, 2-[(E)-2–(2-methoxyphenyl)ethenyl]-7-chloro-4–(2-chlorophenylthio)quinazoline]",–,0,0,0,15.4 ± 4.19,0,0,0,0,–,–,–,–,–,> 25,> 25,> 25,> 25,> 25,> 25
"COc1ccc(/C=C/c2nc(NCCCN(C)C)c3ccccc3n2)cc1 [CP-31398, N'-[2-[2–(4-methoxyphenyl)ethenyl]-4-quinazolinyl]-N,N-dimethyl-1,3-propanediamine dihydrochloride, reference compound]",–,–,–,–,36.8 ± 3.66,–,–,–,30.6 ± 7.83,–,–,–,12.3 ± 0.54,> 25,18.8 ± 1.65,3.09 ± 0.36,26.3 ± 1.41,> 25,18.6 ± 0.92,27 ± 2.1
"COc1ccc(/C=C/c2nc(Sc3ccccc3Cl)c3ccccc3n2)cc1 [IS18, 2-[(E)-2–(4-methoxyphenyl)ethenyl]-4–(2-chlorophenylthio)quinazoline]",–,11.7 ± 4.03,66.5 ± 7.49,26.1 ± 6.03,–,–,0,13.8 ± 1,17.3 ± 4.47,–,–,–,–,12 ± 1.2,10.3 ± 0.818,> 25,–,–,11.1 ± 1.37,10.6 ± 1.38
"COc1ccccc1/C=C/c1nc(Sc2ccccn2)c2ccc(Cl)cc2n1 [IS14, 2-[(E)-2–(2-methoxyphenyl)ethenyl]-7-chloro-4-(pyrid-2-ylthio)quinazoline]",–,7.64 ± 0.7,14.8 ± 6.02,40.5 ± 9.17,–,–,0,0,16 ± 7.94,–,–,–,–,> 25,> 25,21.6 ± 2.1,–,–,> 25,> 25
"COc1ccccc1/C=C/c1nc(Sc2ccccc2F)c2ccccc2n1 [IS5, 2-[(E)-2–(2-methoxyphenyl)ethenyl]-4–(2-fluorophenylthio)quinazoline]",–,18.5 ± 1.59,37 ± 7.87,28.2 ± 5.41,–,–,23.1 ± 5.24,7.67 ± 3.28,3.77 ± 1.21,–,–,–,–,> 25,> 25,> 25,–,–,> 25,> 25
"Cc1nc(Nc2ncc(C(=O)Nc3c(C)cccc3Cl)s2)cc(N2CCN(CCO)CC2)n1 [Dasatinib, dasatinib, reference compound]",–,–,–,–,–,–,94.2 ± 1.28,97.5 ± 1.49,92.3 ± 2.55,–,–,–,–,–,–,–,–,–,–,–

# More lines, main results first:
Inhibition of tyrosine kinase activity [%] ABL (ABL; 0.5 μM),inhibition at 0.5 µM (ABL) [%],inhibition at 0.5 µM (Lck) [%],inhibition at 0.5 µM (Src) [%],inhibition at 0.5 µM (BTK) [%],inhibition at 0.5 µM (BRK) [%],inhibition at 0.5 µM (CSK) [%],inhibition at 0.5 µM (Lyn B) [%],inhibition at 0.5 µM (Fyn A) [%],Inhibition of tyrosine kinase activity [%] Lck (Lck; 0.5 μM) [%],Inhibition of tyrosine kinase activity [%] Src (Src; 0.5 μM) [%],Inhibition of tyrosine kinase activity [%] Fyn A (Fyn A; 0.5 μM) [%],SMILES,IC50 (NHDF) [µM],IC50 (PANC-1) [µM],IC50 (U-251) [µM],IC50 (K562) [µM],IC50 (HCT 116 p53−/−) [µM],IC50 (A549) [µM],IC50 (HCT 116 p53+/+) [µM],IC50 (MCF-7) [µM]
–,4.02 ± 3.58,13.4 ± 5.58,0,31.6 ± 2.38,0,35 ± 1.11,26.2 ± 1.55,60 ± 2.85,–,–,–,"COc1ccccc1/C=C/c1nc(Sc2cc(Cl)ccc2Cl)c2ccccc2n1 [IS3, 2-[(E)-2–(2-methoxyphenyl)ethenyl]-4–(2,5-dichlorophenylthio)quinazoline]",–,–,–,> 25,> 25,–,> 25,> 25
–,1.18 ± 0.17,0,43.8 ± 9.07,–,–,0,1.39 ± 0.41,26.1 ± 8.39,–,–,–,"COc1ccccc1/C=C/c1nc(Sc2ccccc2C(F)(F)F)c2ccccc2n1 [IS6, 2-[(E)-2–(2-methoxyphenyl)ethenyl]-4-[2-(trifluoromethyl)phenylthio]quinazoline]",–,> 25,> 25,> 25,–,–,> 25,> 25
–,0,0,0,0,0,0,0,0,–,–,–,"COc1cccc(Sc2nc(/C=C/c3ccccc3OC)nc3cc(Cl)ccc23)c1 [IS13, 2-[(E)-2–(2-methoxyphenyl)ethenyl]-7-chloro-4–(3-methoxyphenylthio)quinazoline]",–,–,> 25,> 25,> 25,> 25,> 25,> 25
–,25.2 ± 3.69,~74,58,–,–,62.1 ± 4.45,38.4 ± 8.58,52,73.92 ± 9.72,58.56 ± 4.80,52.32 ± 7.04,"COc1ccccc1/C=C/c1nc(Sc2cccc(Cl)c2)c2ccccc2n1 [IS2, 2-[(E)-2–(2-methoxyphenyl)ethenyl]-4–(3-chlorophenylthio)quinazoline]",–,25.1 ± 1.44,> 25,24.8 ± 2.45,–,–,23.8 ± 5.32,19.7 ± 1.13
